Experimental data taken from patent publication US8952150B2, “Prostaglandin transporter inhibitors and uses thereof” (Albert Einstein College of Medicine of Yeshiva University, priority 2009, dated 2015).

Molecular target: rat PGT (Rattus norvegicus (Rat), UniProt Q00910)
Test: [3H]PGE2 uptake inhibition in MDCK cells stably transfected with rat PGT (percent inhibition and IC50)
Assay type: cell-based
Settings: for Inh (% of Ctl) 0.1 μM: 0.1 μM compound; for Inh (% of Ctl) 0.1 μM / Inh (% of Ctl) 0.5 μM / Inh (% of Ctl) 1 μM / Inh (% of Ctl) 10 μM / Inh (% of Ctl) 5 μM / Inh (% of Ctl) 2.5 μM: inhibition of [3H]PGE2 uptake; for Inh (% of Ctl) 0.5 μM: 0.5 μM compound; for Inh (% of Ctl) 1 μM: 1 μM compound; for IC50: [3H]PGE2 uptake, MDCK cells stably transfected with rat PGT; for Inh (% of Ctl) 10 μM: 10 μM compound; for Inh (% of Ctl) 5 μM: 5 μM compound; for Inh (% of Ctl) 2.5 μM: 2.5 μM compound
Experimental: MDCK cells stably transfected with rat PGT (Endo et al., 2002) were seeded at 15-20% confluence on 24-well plates. The day on which the cells were seeded was considered day 1. PGE2 uptake experiments were conducted on day 4. All of the PGE2 uptake experiments were conducted at room temperature. On day 4, cells were washed twice with Waymouth buffer (135 mM NaCl, 13 mM H-Hepes, 13 mM Na-Hepes, 2.5 mM CaCl2, 1.2 mM MgCl2, 0.8 mM MgSO4, 5 mM KCl, and 28 mM D-glucose). Then 200 μL of Waymouth buffer containing [^3H]PGE2 (purchased from Perkin Elmer) was added to each well. At the designed time, the uptake of [^3H]PGE2 was stopped by aspiration of uptake buffer; this was followed by immediate washing twice with 500 μL of chilled Waymouth buffer. Cells were then lysed with 100 μL lysis buffer containing 0.25% SDS and 0.05 N NaOH. 1.5 mL of scintillation solution was added to each well, and intracellular [^3H]PGE2 was counted by MicroBeta Counter.
For preliminary testing of the compounds, 20 μL of Waymouth buffer containing the compound was added to each well; this was immediately followed by the addition of 180 μL of Waymouth buffer containing [^3H]PGE2. In each well, the total volume of uptake medium was 200 μL. Organic compounds were first dissolved in EtOH and then diluted in Waymouth buffer. The percent inhibition of [^3H]PGE2 uptake by compounds was calculated as [(uptakevehicle−uptakeinhibitor)÷(uptakevehicle)]×100.
IC50 was calculated by fitting an equation of y=m1−m1*(m0/(m2+m0)).

Inh (% of Ctl) 0.1 μM | Inh (% of Ctl) 0.5 μM | Inh (% of Ctl) 1 μM | IC50 | Inh (% of Ctl) 10 μM | Inh (% of Ctl) 5 μM | Inh (% of Ctl) 2.5 μM | SMILES
44.5 % of Ctl | 70.2 % of Ctl | 79.5 % of Ctl | 31.7 nM |  |  |  | O=C(NCCOCCNc1nc(Nc2ccc(O)cc2)nc(Nc2ccc(C(=O)NCc3ccc(F)cc3)cc2)n1)c1ccccc1 [compound 147]
 |  | 38.0 % of Ctl |  | 80.5 % of Ctl |  |  | O=C(NCCOCCOCCNc1nc(Nc2ccccc2)nc(Nc2ccc(O)c(Cl)c2)n1)c1ccccc1 [compound 56]
 | 18.4 % of Ctl | 66.4 % of Ctl | 1380 nM | 90.0 % of Ctl | 84.0 % of Ctl |  | CCCCCCNC(=O)c1ccc(Nc2nc(NCCOCCOCCNC(=O)c3ccccc3)nc(Nc3ccc4[nH]ncc4c3)n2)cc1 [compound 65]
 | 4.1 % of Ctl |  | 609 nM |  | 42.0 % of Ctl | 10.4 % of Ctl | O=C(NCCOCCOCCNc1nc(Nc2ccc(O)cc2)nc(Nc2ccc(C(=O)NCc3ccccc3)cc2)n1)c1ccccc1 [compound 83]
36.4 % of Ctl | 59.4 % of Ctl |  |  |  |  |  | O=C(NCCOCCOCCNc1nc(Nc2ccccc2)nc(Nc2ccc(C(=O)NCc3ccccc3)cc2)n1)c1ccccc1 [compound 116]
41.0 % of Ctl | 61.4 % of Ctl |  |  |  |  |  | COC(=O)c1ccc(CNC(=O)c2ccc(Nc3nc(NCCOCCOCCNC(=O)c4ccccc4)nc(Nc4ccc(O)cc4)n3)cc2)cc1 [compound 114]
 |  | 42.9 % of Ctl |  | 86.2 % of Ctl |  |  | O=C(NCCOCCOCCNc1nc(Nc2ccccc2)nc(Nc2ccc(O)cc2)n1)c1cccs1 [compound 39]
4.2 % of Ctl | 14.3 % of Ctl | 23.9 % of Ctl |  |  |  |  | O=C(O)c1cccc(Nc2nc(NCCOCCOCCNC(=O)c3ccccc3)nc(Nc3ccc(C(=O)NCc4ccc(F)cc4)cc3)n2)c1 [compound 150]
17.0 % of Ctl | 52.3 % of Ctl | 70.2 % of Ctl |  |  |  |  | O=C(NCCOCCOCCNc1nc(Nc2ccc(O)cc2)nc(Nc2ccc(C(=O)NCc3cc(F)ccc3F)cc2)n1)c1ccccc1 [compound 127]
 |  | 13.2 % of Ctl |  | 54.6 % of Ctl |  |  | O=C(NCCOCCOCCNc1nc(Nc2ccccc2)nc(Nc2ccc(O)cc2)n1)c1cccnc1 [compound 33]
 |  | 22.6 % of Ctl |  | 76.5 % of Ctl |  |  | COC(=O)COCCOCCNC(=O)c1ccc(Nc2nc(NCCOCCOCCNC(=O)c3ccccc3)nc(Nc3ccc(O)cc3)n2)cc1 [compound 47]
 |  | 30.3 % of Ctl |  | 81.1 % of Ctl |  |  | O=C(NCCOCCOCCNc1nc(Nc2ccccc2)nc(Nc2ccc(O)cc2)n1)c1cccc(Br)c1 [compound 36]
 |  | 65.2 % of Ctl | 4040 nM | 86.4 % of Ctl | 83.4 % of Ctl |  | O=C(NCCOCCOCCNc1nc(Nc2ccccc2)nc(Nc2ccc3cn[nH]c3c2)n1)c1ccccc1 [compound 53]
 |  |  |  |  | 75.3 % of Ctl | 38.9 % of Ctl | COC(=O)[C@H](NC(=O)c1ccc(Nc2nc(NCCOCCOCCNC(=O)c3ccccc3)nc(Nc3ccc(O)cc3)n2)cc1)c1ccccc1 [compound 73]
 |  | 20.4 % of Ctl |  | 75.6 % of Ctl |  |  | O=C(NCCOCCOCCNc1nc(Nc2ccccc2)nc(Nc2ccc(O)cc2)n1)c1cc(F)cc(F)c1 [compound 35]
 |  | 8.4 % of Ctl |  | 12.5 % of Ctl | 10.1 % of Ctl |  | O=C(NCCOCCOCCNc1nc(Nc2ccccc2)nc(Nc2ccc3cn[nH]c3c2)n1)c1ccccc1 [compound 75]
 |  | 12.7 % of Ctl |  | 26.1 % of Ctl |  |  | CCCCCCNc1nc(Nc2ccccc2)nc(Nc2ccc(O)cc2)n1 [compound 55]
 | 62.4 % of Ctl |  | 42.7 nM | 95.5 % of Ctl | 88.1 % of Ctl |  | O=C(NCCOCCOCCNc1nc(Nc2ccc(O)cc2)nc(Nc2ccc(C(=O)NCc3ccccc3)cc2)n1)c1ccccc1 [compound 22]
 | 24.6 % of Ctl |  |  |  | 51.1 % of Ctl | 43.3 % of Ctl | O=C(NCCOCCOCCNc1nc(Nc2ccc(O)cc2)nc(Nc2ccc(C(=O)NCc3ccc(-c4ccccc4)cc3)cc2)n1)c1ccccc1 [compound 93]
